SMILES strings stand for the structures. Calls of active or inactive are those of the source. No cut-off for these calls is given here. Where only a bound is given, the exact number is not on record here.

For data set [1], the target named is Luciferin 4-monooxygenase (Photinus pyralis) (UniProt P08659). Nature of the data set: Noncovalent inhibition of recombinant firefly luciferase assessed as inhibition of enzyme-compound adduct formation at 10 uM after 5 mins by SDS-PAGE based liquid scintillation counting analysis. To be noted: tested as the 14C-labelled form.
Luciferin 4-monooxygenase (Photinus pyralis), sequence (P08659 whole entry): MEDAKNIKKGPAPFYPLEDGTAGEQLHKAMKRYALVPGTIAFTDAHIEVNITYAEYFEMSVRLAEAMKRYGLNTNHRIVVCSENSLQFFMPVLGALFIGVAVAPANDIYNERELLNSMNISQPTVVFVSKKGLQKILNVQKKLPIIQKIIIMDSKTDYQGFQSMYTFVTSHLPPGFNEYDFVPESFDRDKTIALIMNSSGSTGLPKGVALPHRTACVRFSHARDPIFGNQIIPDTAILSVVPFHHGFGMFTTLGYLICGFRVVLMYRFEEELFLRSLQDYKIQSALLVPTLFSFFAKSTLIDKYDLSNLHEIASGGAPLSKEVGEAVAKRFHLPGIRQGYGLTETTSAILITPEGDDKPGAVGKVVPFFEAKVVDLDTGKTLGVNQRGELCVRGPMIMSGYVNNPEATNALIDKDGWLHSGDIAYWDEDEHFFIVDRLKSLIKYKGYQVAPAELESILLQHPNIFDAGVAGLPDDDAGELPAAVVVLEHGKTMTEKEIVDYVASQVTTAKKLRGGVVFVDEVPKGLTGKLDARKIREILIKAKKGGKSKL
Data set [2] has the same target. Nature of the data set: Inhibition of recombinant firefly luciferase activity expressed in U87 cells at 10 uM after 48 hrs. Format: cell-based. To be noted: U-87MG ATCC.
The target is the same in data set [3]. The data set can be described thus: Inhibition of recombinant firefly luciferase activity expressed in U87 cells at 10 uM after 2 mins. The data set is classed as cell-based. To be noted: U-87MG ATCC.
Data set [4] has the same target. Nature of the data set: Noncompetitive inhibition of recombinant firefly luciferase using luciferin as substrate at 1 to 100 nM after 30 min by Michaelis-Menten plot analysis.
Data set [5] has the same target. The data set can be described thus: Noncompetitive inhibition of recombinant firefly luciferase using ATP as substrate at 1 to 100 nM after 30 mins by Michaelis-Menten plot analysis.
For data set [6] the target is unchanged. The data set can be described thus: Inhibition of recombinant firefly luciferase at 10 uM after 20 mins by luminescence assay.
For data set [7] the target is unchanged. Nature of the data set: Inhibition of recombinant firefly luciferase at 1 nM after 20 mins by luminescence assay.
The target of data set [8] is Luciferin 4-monooxygenase (Photinus pyralis, UniProt P08659). The data set can be described thus: Inhibition of recombinant firefly luciferase after 20 mins by luminescence assay.
Luciferin 4-monooxygenase, sequence (P08659 whole entry): as above
Data set [9] deals with T1, Coelenterazine h 2-monooxygenase (Renilla reniformis) (UniProt P27652).
T1 sequence (whole entry): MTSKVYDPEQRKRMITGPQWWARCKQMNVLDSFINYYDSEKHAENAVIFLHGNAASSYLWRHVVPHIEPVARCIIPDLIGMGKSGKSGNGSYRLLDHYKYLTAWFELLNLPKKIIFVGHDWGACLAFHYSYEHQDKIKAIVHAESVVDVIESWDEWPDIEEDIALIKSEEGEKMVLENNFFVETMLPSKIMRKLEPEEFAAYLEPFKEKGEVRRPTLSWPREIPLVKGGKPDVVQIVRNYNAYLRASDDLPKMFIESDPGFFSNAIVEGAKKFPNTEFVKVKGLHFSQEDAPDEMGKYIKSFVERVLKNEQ
Nature of the data set: Inhibition of sea pansy luciferase after 20 mins by luminescence assay.

Data set [10] is described as follows: Cytotoxicity against human U87 cells assessed as cell viability at 10 uM after 6 hrs by propidium iodide staining-based fluorescence assay. To be noted: u-87mg atcc.
Data set [11] deals with Luciferin 4-monooxygenase (Photinus pyralis) (UniProt P08659). Nature of the data set: Reversible inhibition of recombinant firefly luciferase incubated for 30 mins measured post compound wash-out by luminescence assay.

For the molecule `N#Cc1ccc(C2=NOC(Cc3ccccc3)C2)cc1` (racemic), the inhibition entry in data set [1] was “Active”.
For the molecule `COc1ccc(C2=NO[C@H](Cc3ccccc3)C2)cc1`, the inhibition entry in data set [2], in [3], in data set [4] and in data set [5] was “Active” throughout. For the same molecule, the figures for the inhibition in [6] and in data set [7] were 99.8% and 70.9%, respectively. For the same molecule, the IC50 in [8] was 0.288 nM.
In the case of `Clc1ccc(C2=NO[C@H](Cc3ccccc3)C2)cc1`, the inhibition result in data set [9] is “inactive”. Moreover, the Activity entry in data set [10] is given as “Non-toxic”. Moreover, the inhibition result in data set [2], in [3], in data set [11], in data set [4] and in data set [5] was “Active” in each case. The figures for the inhibition in data set [6] and in data set [7] were 99.8% and 72.8%, respectively. In data set [8], the IC50 is 0.257 nM.
Take `COc1ccc(C2=NO[C@@H](Cc3ccccc3OC)C2)cc1`: the inhibition is 67.1% in [6] and 6.1% in [7]. The IC50 in data set [8] is 2190 nM.
As to `c1ccc(C[C@H]2CC(c3cccc4ccccc34)=NO2)cc1`, the values for the inhibition in data set [6] and in [7] were 41.5% and 5.5%, respectively. In addition, in [8], the pIC50 was above 5.
For `Clc1ccc(C2=NOC(CCc3ccccc3)C2)cc1` (racemic), the inhibition worked out at 64.2% in data set [6] and 1.5% in [7]. Also, in data set [8], the IC50 was 3240 nM.
For the molecule `COc1ccc(C2=NO[C@@H](Cc3ccccc3)C2)cc1`, the inhibition in data set [6] came to 68%; in data set [7], 6.4%. Moreover, the 50% inhibitory concentration (IC50) in [8] is 2450 nM.

For orientation: inhibition means the change of the read-out against control, counted positive when it falls. A word on the IC50: it is the concentration at which inhibition is half-maximal. For orientation: pIC50 means the negative decadic logarithm of the IC50, by convention in mol/L.

These data come from ChEMBL document CHEMBL2321784, “Discovery of 5-benzyl-3-phenyl-4,5-dihydroisoxazoles and 5-benzyl-3-phenyl-1,4,2-dioxazoles as potent firefly luciferase inhibitors” (J Med Chem, 2013).
